For one data set, the system named is DOHH2 cells. In words: CellTiter-Glo cell proliferation assay, DOHH2 cells. Type of data set: cell-based. The settings on record: Homo sapiens, DOHH-2, 72 hours. The essentials:
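DOHH2 cells seeded in DMEM + 10% FBS, exposed to serially diluted compound for 72 h at 37 °C, 5% CO2. Viability read by CellTiter-Glo luminescence; GI50 calculated.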

The next data set addresses T1, BCL-XL (Homo sapiens, UniProt Q07817).
T1 construct: purchased Cisbio 63ADK000CB04PEG
In words: HTRF BCL-XL/BAK assay (Cisbio). The format is binding. Conditions: recombinant human Tag1-BCL-XL 2 nM, Tag2-BAK 5 nM. How it is done: (§1) Then the pre-mixed anti-Tag1-Eu^3+ and anti-tag2-XL665 were added to the plate and further incubated at room temperature for another 2 hours. The signals ([…]) were read on Envision 2104 instrument. The IC50 for each compound was derived from fitting the signal of 665/615 nM to the increasing compound concentration.
(§2) Using the above assays, the following compounds were tested.

A further data set addresses T2, BCL-2 (Homo sapiens, UniProt P10415).
T2 construct: purchased Cisbio 63ADK000CB01PEG
In words: HTRF BCL-2/BAK assay (Cisbio). Type of data set: binding. Conditions: recombinant human Tag1-BCL-2 2 nM, Tag2-BAK 10 nM. How it is done: as §1, §2

Data set [1] relates to RS4;11 subcutaneous xenograft tumor. Put plainly: In vivo pharmacodynamic study, NOD/SCID RS4;11 subcutaneous xenograft tumor model. Set-up: species or system NOD/SCID female mouse. Conditions: q.d., after 20 days dosing. How it is done: In general, NOD/SCID RS4;11 subcutaneous xenograft tumor model was established by inoculating 5*10^6/0.1 ml/mouse subcutaneously in the right back of the NOD/SCID female mouse. The animals were checked daily for any effects of treatments on behaviors such as mobility, food and water consumption, body weight gain/loss, eyes, hairs and any other abnormalities. Mortality and clinical signs observed during the study were recorded in the raw data. Animal weight and tumor size were measured every two days during the study. Tumor volume (TV) was calculated as: TV=0.5*a*b^2, wherein a and b represent the measured length and width of tumor, respectively. Relative tumor proliferation inhibition rate (TGIRTV (%)), as an indication of anti-tumor effectiveness, was calculated as: TGIRTV (%)=(1−TRTV/CRTV)*100%, wherein TRTV and CRTV were relative tumor volume (RTV) in treatment group and vehicle control group, respectively. RTV was calculated as: RTV=Vt/V0, wherein Vt and V0 represented the tumor volume measured on day t after dosing and on the first day of dosing. At the end of last dosing, plasma and tumor tissue were collected, weighed, and photographed according to requirements of the study protocol.
The TGIRTV(%) values after 20 days dosing were shown in Table 5 below, where “+++” represented TGIRTV(%)≥[…]; “++” represented 30%<TGIRTV(%)<80%. p.o. stands for “per os”; I.P. stands for “intraperitoneal”; q.d. refers to “once daily”.

The target of the next data set is T3, CYP2C9 (Homo sapiens, UniProt P11712).
T3 construct: from tissue; host or cells: human liver microsomes
In words: CYP2C9 activity assay in human liver microsomes, substrate diclofenac. The format is in vitro ADME. Conditions: probe diclofenac, test compound 1 μM, 37° C. 10 min, read-out: Inhibition rate (%) against CYP2C9 Enzyme. As to the method: In this assay, several exemplary compounds of the present disclosure and a control compound (Venetoclax) were used as the test compounds. In general, the assay was conducted by the following steps: • 1. The solution of test compound, human liver microsomes solution, and substrate (diclofenac) solution were mixed in a 96-well assay plate on ice to, and the final concentration of each test compound is 1 μM; • 2. The 96-well assay plate and NADPH solution were pre-incubated at 37° C. for 5 minutes; • 3. NADPH solution was added to into the assay plates to initiate the reaction; • 4. The assay plate was incubated at 37° C. for 10 min; • 5. The reaction was stopped; and after quenching, a portion of the supernatant was taken from each well for LC/MS analysis; • 6. The inhibition rate was calculated by the following equation: Inhibition rate (%)=(1−Valuetest/Valuecontrol)×100%, where Valuetest refers to the LC/MS data obtained from wells with test compounds and Valuecontrol refers to the LC/MS data obtained from wells without test compound.

From patent US20240239792A1, “MODULATORS OF BCL-2 OR BCL-2/BCL-XL AND USES THEREOF” (APPICINE THERAPEUTICS (HK) LIMITED, priority 2021, published 2024) come the findings set out here.

Molecules are shown by their SMILES.

T1 sequence (Q07817 whole entry): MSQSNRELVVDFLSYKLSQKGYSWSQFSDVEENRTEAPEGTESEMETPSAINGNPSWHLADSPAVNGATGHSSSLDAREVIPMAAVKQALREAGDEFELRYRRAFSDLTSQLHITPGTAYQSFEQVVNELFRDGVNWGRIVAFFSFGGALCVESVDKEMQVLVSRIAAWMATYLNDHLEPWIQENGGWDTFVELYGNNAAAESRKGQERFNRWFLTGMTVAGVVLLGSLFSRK
T3 sequence (P11712 whole entry): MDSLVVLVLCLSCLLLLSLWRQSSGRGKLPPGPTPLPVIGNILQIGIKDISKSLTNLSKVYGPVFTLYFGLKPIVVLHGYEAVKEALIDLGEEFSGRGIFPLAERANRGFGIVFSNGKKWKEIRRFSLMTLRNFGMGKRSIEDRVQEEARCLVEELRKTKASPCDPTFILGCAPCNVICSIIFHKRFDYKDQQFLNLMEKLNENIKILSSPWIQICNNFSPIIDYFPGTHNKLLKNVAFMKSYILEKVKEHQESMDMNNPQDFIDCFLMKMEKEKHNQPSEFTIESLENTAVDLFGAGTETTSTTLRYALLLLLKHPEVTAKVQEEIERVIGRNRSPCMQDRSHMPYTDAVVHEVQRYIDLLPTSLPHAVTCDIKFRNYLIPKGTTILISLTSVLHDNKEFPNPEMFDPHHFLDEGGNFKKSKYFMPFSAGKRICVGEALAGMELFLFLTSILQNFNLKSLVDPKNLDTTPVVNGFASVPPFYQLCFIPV
T2 sequence (P10415 whole entry): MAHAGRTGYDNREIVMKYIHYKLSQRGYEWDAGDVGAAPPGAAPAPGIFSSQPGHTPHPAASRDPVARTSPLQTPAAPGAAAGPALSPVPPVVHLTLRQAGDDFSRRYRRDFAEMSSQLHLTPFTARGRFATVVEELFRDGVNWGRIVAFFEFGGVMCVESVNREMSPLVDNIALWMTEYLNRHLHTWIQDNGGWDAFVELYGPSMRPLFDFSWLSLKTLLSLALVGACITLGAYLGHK

Regarding `O=C(NS(=O)(=O)c1ccc(NCC2CC3(CCN(CC(F)F)CC3)C2)c([N+](=O)[O-])c1)c1ccc(N2CCN([C@@H]3CCCCc4c(Cl)cccc43)CC2)cc1Oc1cnc2[nH]ccc2c1` [Compound 113, (R)-2-((1H-pyrrolo[2,3-b]pyridin-5-yl)oxy)-4-(4-(1-chloro-6,7,8,9-tetrahydro-5H-benzo[7]annulen-5-yl)piperazin-1-yl)-N-((4-(((7-(2,2-difluoroethyl)-7-azaspiro[3.5]nonan-2-yl)methyl)amino)-3-nitrophenyl)sulfonyl)benzamide], the GI50 with DOHH2 cells was less than 50 nM. Moreover, the IC50 at BCL-XL was 20 to 200 nM; at BCL-2, less than 20 nM. Also, in data set [1] (50 mg/kg, p.o.), the “TGIRTV(%)” value is “+++ (TGIRTV(%)≥800)”. For the same compound, the inhibition at 10 min, 1 µM on CYP2C9 was less than 30%.
The corresponding values for `O=C(NS(=O)(=O)c1ccc(NCC2CC3(CCN(CCF)CC3)C2)c([N+](=O)[O-])c1)c1ccc(N2CCN([C@@H]3CCCCc4c(Cl)cccc43)CC2)cc1Oc1cnc2[nH]ccc2c1` [Compound 114, (R)-2-((1H-pyrrolo[2,3-b]pyridin-5-yl)oxy)-4-(4-(1-chloro-6,7,8,9-tetrahydro-5H-benzo[7]annulen-5-yl)piperazin-1-yl)-N-((4-(((7-(2-fluoroethyl)-7-azaspiro[3.5]nonan-2-yl)methyl)amino)-3-nitrophenyl)sulfonyl)benzamide] are less than 50 nM, less than 20 nM, less than 20 nM, “+++ (TGIRTV(%)≥800)” and less than 30%.
Take `O=C(NS(=O)(=O)c1ccc(NCC2CC3(CCNCC3)C2)c([N+](=O)[O-])c1)c1ccc(N2CCN([C@@H]3CCCCc4c(Cl)cccc43)CC2)cc1Oc1cnc2[nH]ccc2c1` [Compound 104, (R)-2-((1H-pyrrolo[2,3-b]pyridin-5-yl)oxy)-N-((4-(((7-azaspiro[3.5]nonan-2-yl)methyl)amino)-3-nitrophenyl)sulfonyl)-4-(4-(1-chloro-6,7,8,9-tetrahydro-5H-benzo[7]annulen-5-yl)piperazin-1-yl)benzamide]: the GI50 in the data set on DOHH2 cells was less than 50 nM. For the same compound, the IC50 on BCL-XL and on BCL-2 was less than 20 nM throughout. Also, the “TGIRTV(%)” value in data set [1] (21 mg/kg, I.P.) was “+++ (TGIRTV(%)≥800)”. Moreover, the inhibition at 10 min, 1 µM at CYP2C9 was less than 30%.
